Values of other authors in patent US10779570B2, “Aerosol from tobacco” (PHILIP MORRIS PRODUCTS S.A., priority 2013, dated 2020).
Where two headings read alike, the source gives them in different places.

Columns and labels:
[1] = smoke constituent
[2] = biomarker of exposure in urine

| Compound | Organ Class toxicity [1] | Biomarker t1/2β ([2]; plasma or blood) [h] | further results |
| --- | --- | --- | --- |
| C=CC=C [1,3-Butadiene] | CA, RT, RDT | – | – |
| Nc1ccc2ccccc2c1 [2-Aminonaphthalene] | – | 9 | – |
| CC(=O)N[C@@H](CSCCC#N)C(=O)O [2-Cyanoethylmercapturic acid] | – | 17 | – |
| CC(=O)N[C@@H](CSCCO)C(=O)O [2-Hydroxyethyl-mercapturic acid] | – | 5 | – |
| CC(=O)N[C@@H](CSC(C)CCO)C(=O)O (stereo partly drawn) [3-Hydroxy-1-methylpropyl-mercapturic acid] | – | – | Biomarker t1/2β [2]: 48 h |
| CC(=O)N[C@@H](CSCCCO)C(=O)O [3-Hydroxypropyl-mercapturic acid] | – | 10 | – |
| Nc1ccc(-c2ccccc2)cc1 [4-Aminobiphenyl] | – | 26 | – |
| C=CC=O [Acrolein] | RT, CT | – | – |
| C=CC#N [Acrylonitrile] | CA, RT | – | – |
| c1ccccc1 [Benzene] | CA, CT, RDT | – | – |
| [C-]#[O+] [Carbon monoxide] | RDT, CT | – | – |
| C1CO1 [Ethylene Oxide] | CA, RT, RDT | – | – |
| O=NN1CCC[C@H]1c1cccnc1 [NNN, N-nitrosonornicotine] | – | 15 | – |
| Cc1ccccc1 [Toluene] | RT, RDT | – | – |
| S-benzyl-mercapturic acid | – | 9 | – |
